Assay results from patent US20220401514A1, “ANTIMICROBIAL, BACTERIOPHAGE-DERIVED POLYPEPTIDES AND THEIR USE AGAINST GRAM-NEGATIVE AND ACID-FAST BACTERIA” (CONTRAFECT CORPORATION, priority 2019, published 2022).

Legend:
[1] = system: Acinetobacter baumannii strain 30; experiment: Checkerboard assay (FICI) with antibiotics, A. baumannii; type: cell-based; conditions: checkerboard
Procedure: (§1) Checkerboard assays. […] Checkerboards were constructed by first preparing columns of a 96-well polypropylene microtiter plate, in which each well had the same amount of antibiotic diluted 2-fold along the horizontal axis. […] Summation fractional inhibitory concentration index (FICIs) were calculated for each drug and the minimum FICI was used to determine synergy. FICIs were calculated as follows: FICI=FIC A+FIC B, where FIC A is the MIC of each antibiotic in the combination/MIC of the each antibiotic alone, and FIC B is the MIC of each Chp peptide in the combination/MIC of each Chp peptide alone. The combination is considered synergistic when the FICI is ≤0.5, strongly additive when the FICI is >0.5 to <1, additive with the FICI is 1-<2, and antagonistic when the FICI is ≥2.
The results are shown below in Tables 22-27.

[2] = system: P. aeruginosa strain CFS-1292; experiment: Checkerboard assay (FICI) with antibiotics, P. aeruginosa; type: cell-based, Pseudomonas aeruginosa; conditions: for Antibiotic FIC: P. aeruginosa CFS-1292; for Antibiotic MIC in checkerboard: P. aeruginosa CFS-1292, CAA + […] human serum
Procedure: Any known method to assess MIC may be used.
Checkerboards are constructed by first preparing columns of e.g., a 96-well polypropylene microtiter plate, wherein each well has the same amount of antibiotic diluted 2-fold along the horizontal axis. […] Bacteria are added to the drug combinations at concentrations of 1×10^5 […] in CAA, for example, with or without human serum or pulmonary surfactant. […] Summation fractional inhibitory concentrations (ΣFICs) are calculated for each drug and the minimum ΣFIC value (ΣFICmin) is used to determine the effect of the Chp peptide/antibiotic combination.
as §1
In the checkerboard assay, fractional inhibitory concentration index (FICI) values are calculated.

[3] = system: carbapenem-resistant P. aeruginosa clinical isolate CFS-1292; experiment: MIC by modified CLSI broth microdilution against P. aeruginosa CFS-1292 (CAA, CAA + human serum); type: cell-based, Pseudomonas aeruginosa; conditions: for MIC (μg/mL) against CFS-1292 in 100% CAA (1st run/2nd run): 1st run or single value
[4] = system: M. smegmatis; experiment: 45 hr MIC against M. smegmatis (NTM), Mueller Hinton broth; type: cell-based, Mycobacterium smegmatis; conditions: M. smegmatis MC^2 155, Run #1
[5] = system: Klebsiella pneumoniae strain 1139; experiment: Checkerboard assay (FICI) with antibiotics, K. pneumoniae; type: cell-based; conditions: for Antibiotic FIC / Antibiotic MIC: checkerboard
Procedure: as §1

[6] = system: LPS; experiment: Endotoxin neutralization, limulus amoebocyte lysate (LAL) enzyme assay, LPS binding; type: biochemical; conditions: LPS 0.8 EU/mL
Procedure: CHEM. […] The standard reference samples contained only LPS dissolved in pyrogen-free water. Solutions were mixed well and incubated at 24° C. for 1 hour, and the manufacturers' test procedure for quantitative detection of endotoxins was followed.

Compound	Antibiotic FIC ([1]; in combination with Chp2)	Antibiotic MIC ([1]; in combination with Chp2) [µg/mL]	Antibiotic FIC ([1]; in combination with Chp2-M1)	Antibiotic MIC ([1]; in combination with Chp2-M1) [µg/mL]	Antibiotic FIC ([1]; in combination with Chp4-M1)	Antibiotic MIC ([1]; in combination with Chp4-M1) [µg/mL]	Antibiotic FIC ([1]; in combination with Chp6-M1)	Antibiotic MIC ([1]; in combination with Chp6-M1) [µg/mL]	Antibiotic FIC ([1]; in combination with Chp10-M1)	Antibiotic MIC ([1]; in combination with Chp10-M1) [µg/mL]	Antibiotic FIC ([1]; in combination with Unp2-M1)	Antibiotic MIC ([1]; in combination with Unp2-M1) [µg/mL]	Antibiotic FIC ([2]; combined with Chp2-M1)	Antibiotic MIC in checkerboard ([2]; combined with Chp2-M1) [µg/mL]	Antibiotic FIC ([2]; combined with Chp2)	Antibiotic MIC in checkerboard ([2]; combined with Chp2) [µg/mL]	Antibiotic FIC ([2]; combined with Chp4-M1)	Antibiotic MIC in checkerboard ([2]; combined with Chp4-M1) [µg/mL]	Antibiotic FIC ([2]; combined with Chp6-M1)	Antibiotic FIC ([2]; combined with Unp2-M1)	other results
CCN1CCN(C(=O)N[C@@H](C(=O)N[C@@H]2C(=O)N3[C@@H]2SC(C)(C)[C@@H]3C(=O)O)c2ccccc2)C(=O)C1=O [Piperacillin]	0.25	8	0.25	8	0.25	8	0.5	16	0.25	4	0.25	8	0.125	1	0.5	4	0.5	8	0.25	0.25	Antibiotic MIC in checkerboard ([2]; combined with Chp6-M1): 2 µg/mL; Antibiotic FIC ([2]; combined with Chp10-M1): 0.25; Antibiotic MIC in checkerboard ([2]; combined with Chp10-M1): 2 µg/mL; Antibiotic MIC in checkerboard ([2]; combined with Unp2-M1): 2 µg/mL
Gentamicin	0.25	0.03125	0.5	0.03125	0.5	0.03125	0.5	0.03125	0.01562	0.0009766	0.5	0.03125			0.5					0.25	
MKKRTKALLPYAVFIILSFQLTLLTALFMYYHYTF [Lvp2]																					MIC (μg/mL) against CFS-1292 in 100% CAA (1st run/2nd run) [3]: 32 µg/mL; MIC (μg/mL) against CFS-1292 in CAA + […] human serum [3]: 8 µg/mL
MRKKMHKSLDKRVFNRTAKKSKKINVNPVVYRGGIRL [CDL907]																					MIC (μg/mL) against CFS-1292 in 100% CAA (1st run/2nd run) [3]: 8 µg/mL; MIC (μg/mL) against CFS-1292 in CAA + […] human serum [3]: 0.5 µg/mL; 45 hr MIC [4]: >128 µg/mL
colistin [reference compound]		0.0009766	0.5		0.5	0.003906	0.25		0.25	0.0009766	0.5		0.25	0.01562	0.25	0.01562	0.25	0.03125	0.25	0.25	Antibiotic FIC ([5]; in combination with Chp4-M1): 0.25; Antibiotic MIC ([5]; in combination with Chp4-M1): 0.03125 µg/mL; Antibiotic MIC ([5]; in combination with Chp6-M1): 0.01562 µg/mL; Antibiotic FIC ([5]; in combination with Chp10-M1): 0.25; Antibiotic MIC ([5]; in combination with Chp10-M1): 0.03125 µg/mL; Antibiotic MIC ([5]; in combination with Unp2-M1): 0.03125 µg/mL; Antibiotic MIC in checkerboard ([5]; combined with Chp2): 0.007812 µg/mL; Antibiotic MIC in checkerboard ([5]; combined with Chp2-M1): 0.01562 µg/mL; LPS binding ([6]; […]-64 μg/mL, 24° C., 1 hour): dose-dependent increases in LPS binding; % LPS Bound ([6]; peptide concentration 0.5 μg/mL): 22.5%; % LPS Bound ([6]; peptide concentration 1 μg/mL): 51.9%; % LPS Bound ([6]; peptide concentration 2 μg/mL): 74.2%; % LPS Bound ([6]; peptide concentration 4 μg/mL): 88.2%; % LPS Bound ([6]; peptide concentration 8 μg/mL): 92.4%; % LPS Bound ([6]; peptide concentration 16 μg/mL): 92.8%; % LPS Bound ([6]; peptide concentration 32 μg/mL): 92.2%; % LPS Bound ([6]; peptide concentration 64 μg/mL): 93.4%; Antibiotic MIC in checkerboard ([2]; combined with Chp6-M1): 0.01562 µg/mL; Antibiotic MIC in checkerboard ([2]; combined with Chp10-M1): 0.007806 µg/mL; Antibiotic MIC in checkerboard ([2]; combined with Unp2-M1): 0.01562 µg/mL
